Reference: patent publication US12202835B2, “Substituted aromatic ring-linked dioxinoquinazolines and dioxinoquinolines as kinase inhibitors” (BEIJING SCITECH-MQ PHARMACEUTICALS LIMITED, priority 2018, dated 2025)

Experiments:
MER kinase = MER kinase (Homo sapiens (Human), UniProt Q12866); assay: Assay of small molecular compounds for inhibiting the activity of MER kinase (LANCE TR-FRET); format: biochemical
In short: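 MER kinase preincubated 5 min at RT with compound (11 points, 0.042-2500 nM final), then ULight-poly GT and ATP added (4× stocks 200 nM and 20 μM) for 60 min at RT, 1% DMSO. Phosphorylation detected by LANCE TR-FRET; IC50 from % inhibition versus controls.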

EBC1 cells = assay: Assay for inhibiting the proliferation of EBC1 cells (CCK-8); format: cell-based; settings: Homo sapiens, EBC-1
Description: In particular, the method of the assay of small molecular compounds for inhibiting cell proliferation is as follows: • 1. Cells cultured to a logarithmic growth phase (adherent cells need to be digested with trypsin and neutralized) were taken, pipetted evenly, transferred to a 15 mL centrifuge tube, and centrifuged at 1000 rpm at room temperature for 4 minutes; • 2. The supernatant was discarded; 5 mL of complete medium was added and pipetted evenly; 10 μL of cell suspension was taken out, mixed well with 10 μL of 0.4% trypan blue, and counted under a cell counter; the proportion of living cells was ensured to be above 90%; • 3. 80 μL of cell suspension per well was seeded into a 96-well plate according to the conditions shown in the attached table, and cultured overnight; in the outer 36 wells of the 96-well plate, no cells were added but only sterile water was added; only the inner 60 wells were used for cell assay and control; • 4. 5×compound dilution: the compounds were serially diluted 3-fold to obtain a total of 9 concentrations; 80-fold overall dilution was completed with complete medium, the resulting concentration was 5 times the final drug concentration, and DMSO concentration was 1.25%; • 5. 20 μL of the corresponding compounds with different concentration gradients were added to each well of assay wells of the 96-well plate; 20 μL of complete medium was added to positive and negative control wells and shaken well; and the final concentration of DMSO in each well was 0.25%; • 6. After 72 hours of incubation, 10 μL of CCK-8 reagent was added to each well and further incubated at 37° C. for 1-2 hours; and the OD value was read at 450 nm; • 7. Cell survival rate (%)=[(As−Ab)/(Ac−Ab)]*100% • As: Assay well (medium containing cells, CCK-8, compound), • Ac: Control well (medium containing cells, CCK-8), • Ab: Blank well (CCK-8, medium without cell and compound), • 8. The values were imported into Graphpad Prism 5 software for IC50 calculation.

MHCC97H cells = assay: Assay for inhibiting the proliferation of MHCC97H cells (CCK-8); format: cell-based; settings: Homo sapiens
In short: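 Cells seeded in 96-well plates overnight, then exposed 72 h to 9 three-fold dilutions of compound (0.25% DMSO final). Viability by CCK-8 (1-2 h at 37° C., OD 450 nm), survival normalized to untreated and cell-free blanks; IC50 by curve fitting.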

c-MET kinase = c-MET kinase (Homo sapiens (Human), UniProt P08581); assay: Assay of small molecular compounds for inhibiting the activity of c-MET kinase (LANCE TR-FRET); format: biochemical; settings: read-out: CMET IC50
c-MET kinase, sequence (P08581 25-1390): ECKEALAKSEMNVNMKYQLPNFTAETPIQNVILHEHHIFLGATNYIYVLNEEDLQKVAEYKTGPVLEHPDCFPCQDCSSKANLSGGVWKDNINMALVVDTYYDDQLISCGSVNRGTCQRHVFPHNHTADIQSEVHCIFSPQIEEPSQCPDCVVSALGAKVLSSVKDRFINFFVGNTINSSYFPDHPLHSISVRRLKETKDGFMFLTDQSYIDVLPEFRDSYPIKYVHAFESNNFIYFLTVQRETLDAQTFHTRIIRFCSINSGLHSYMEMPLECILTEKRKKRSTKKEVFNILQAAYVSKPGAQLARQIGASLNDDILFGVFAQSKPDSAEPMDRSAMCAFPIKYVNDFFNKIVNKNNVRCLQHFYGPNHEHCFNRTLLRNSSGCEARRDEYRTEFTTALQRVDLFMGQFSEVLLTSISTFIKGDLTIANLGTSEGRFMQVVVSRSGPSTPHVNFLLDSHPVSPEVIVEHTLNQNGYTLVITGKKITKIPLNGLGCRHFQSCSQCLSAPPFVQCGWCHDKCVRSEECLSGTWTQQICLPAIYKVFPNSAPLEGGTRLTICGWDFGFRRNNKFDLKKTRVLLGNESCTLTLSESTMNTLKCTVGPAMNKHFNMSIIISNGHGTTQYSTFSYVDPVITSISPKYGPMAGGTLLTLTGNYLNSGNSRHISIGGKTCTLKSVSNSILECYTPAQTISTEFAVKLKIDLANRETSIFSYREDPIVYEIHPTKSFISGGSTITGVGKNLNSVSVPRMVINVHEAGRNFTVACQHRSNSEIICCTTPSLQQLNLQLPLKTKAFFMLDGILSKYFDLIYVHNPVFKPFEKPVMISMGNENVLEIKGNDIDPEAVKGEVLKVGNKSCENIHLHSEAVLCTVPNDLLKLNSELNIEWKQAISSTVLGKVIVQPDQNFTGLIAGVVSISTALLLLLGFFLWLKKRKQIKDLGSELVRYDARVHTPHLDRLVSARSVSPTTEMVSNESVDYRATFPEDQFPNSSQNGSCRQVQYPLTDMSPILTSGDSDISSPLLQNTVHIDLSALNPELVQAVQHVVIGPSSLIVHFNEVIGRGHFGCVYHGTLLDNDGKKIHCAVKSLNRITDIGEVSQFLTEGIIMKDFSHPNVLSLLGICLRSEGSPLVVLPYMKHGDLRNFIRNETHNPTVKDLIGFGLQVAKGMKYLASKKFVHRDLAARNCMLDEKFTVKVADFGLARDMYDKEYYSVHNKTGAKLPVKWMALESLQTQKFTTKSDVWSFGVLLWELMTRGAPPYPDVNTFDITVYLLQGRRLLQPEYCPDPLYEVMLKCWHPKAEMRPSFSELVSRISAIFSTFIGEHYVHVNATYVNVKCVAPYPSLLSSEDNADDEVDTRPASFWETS
In short: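 LANCE TR-FRET assay with c-MET at 1 nM final after a 5 min room-temperature preincubation with compound (11-point, 3-fold series, 2500–0.042 nM final, 4% DMSO). ULight-JAK-1 (Tyr1023) peptide (100 nM final) and ATP (10 μM final) reacted 60 min in the dark. Inhibition was taken relative to controls, then IC50 fitted.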

MER kinase, sequence (Q12866 21-999): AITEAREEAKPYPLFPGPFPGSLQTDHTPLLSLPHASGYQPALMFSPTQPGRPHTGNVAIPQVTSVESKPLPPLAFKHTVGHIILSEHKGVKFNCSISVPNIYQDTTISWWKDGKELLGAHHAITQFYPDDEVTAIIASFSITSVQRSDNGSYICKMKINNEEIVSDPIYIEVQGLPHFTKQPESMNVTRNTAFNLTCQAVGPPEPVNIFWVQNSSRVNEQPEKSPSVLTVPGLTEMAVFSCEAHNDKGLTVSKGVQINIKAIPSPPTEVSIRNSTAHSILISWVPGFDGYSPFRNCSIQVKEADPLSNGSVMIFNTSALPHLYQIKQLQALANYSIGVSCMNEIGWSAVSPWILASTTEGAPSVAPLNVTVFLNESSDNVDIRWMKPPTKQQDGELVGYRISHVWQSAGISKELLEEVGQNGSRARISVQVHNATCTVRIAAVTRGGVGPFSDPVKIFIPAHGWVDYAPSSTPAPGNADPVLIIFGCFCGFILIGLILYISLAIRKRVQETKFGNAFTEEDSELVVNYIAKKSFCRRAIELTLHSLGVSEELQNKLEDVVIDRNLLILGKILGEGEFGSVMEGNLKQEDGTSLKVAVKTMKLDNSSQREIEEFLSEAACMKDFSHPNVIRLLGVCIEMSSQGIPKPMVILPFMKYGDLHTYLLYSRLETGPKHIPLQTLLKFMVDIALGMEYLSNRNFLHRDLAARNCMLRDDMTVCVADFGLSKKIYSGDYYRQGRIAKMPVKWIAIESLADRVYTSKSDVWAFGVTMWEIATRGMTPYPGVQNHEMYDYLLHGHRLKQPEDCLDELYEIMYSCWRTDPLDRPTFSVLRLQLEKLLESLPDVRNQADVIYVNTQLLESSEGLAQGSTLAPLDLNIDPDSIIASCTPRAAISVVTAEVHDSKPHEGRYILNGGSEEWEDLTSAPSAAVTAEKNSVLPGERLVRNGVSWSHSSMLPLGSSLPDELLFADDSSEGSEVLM

| IC50 (MER kinase) [µM] | IC50 (c-MET kinase) [µM] | Compound | IC50 (EBC1 cells) [µM] | IC50 (MHCC97H cells) [µM] |
| --- | --- | --- | --- | --- |
| ≤ 0.05 | ≤ 0.05 | CCOc1ccn(-c2ccc(F)cc2)c(=O)c1C(=O)Nc1cc(F)c(Oc2ccnc3cc(OC)c4c(c23)OCCO4)cc1Cl [Example 115, N-(2-chloro-5-fluoro-4-((5-methoxy-2,3-dihydro-[1,4]dioxino[2,3-f]quinolin-10-yl)oxy)phenyl)-4-ethoxy-2-oxo-1-(4-fluorophenyl)-1,2-dihydropyridin-3-carboxamide] | ≤ 0.05 | ≤ 0.05 |
| ≤ 0.05 | ≤ 0.05 | COc1cc2nccc(Oc3cc(Cl)c(NC(=O)c4cn(C)c(=O)n(-c5ccc(F)cc5)c4=O)cc3F)c2c2c1OCCO2 [Example 116, N-(2-chloro-5-fluoro-4-((5-methoxy-2,3-dihydro-[1,4]dioxino[2,3-f]quinolin-10-yl)oxy)phenyl)-3-(4-fluorophenyl)-1-methyl-2,4-dioxo-1,2,3,4-tetrahydropyrimidine-5-carboxamide] | ≤ 0.05 | 0.05 to 0.2 |
| ≤ 0.05 | ≤ 0.05 | COc1cc2nccc(Oc3ccc(NC(=O)c4c(OC)ccn(-c5ccc(F)cc5)c4=O)cc3F)c2c2c1OCCO2 [Example 18, N-(3-fluoro-4-((5-methoxy-2,3-dihydro-[1,4]dioxino[2,3-f]quinolin-10-yl)oxy)phenyl)-1-(4-fluorophenyl)-4-methoxy-2-oxo-1,2-dihydropyridine-3-carboxamide] | ≤ 0.05 | ≤ 0.05 |
| ≤ 0.05 | ≤ 0.05 | C=CCn1cc(C(=O)Nc2ccc(Oc3ccnc4cc(OC)c5c(c34)OCCO5)c(F)c2)c(=O)n(-c2ccc(F)cc2)c1=O [Example 100, N-(3-fluoro-4-((5-methoxy-2,3-dihydro-[1,4]dioxino[2,3-f]quinolin-10-yl)oxy)phenyl)-3-(4-fluorophenyl)-1-allyl-2,4-dioxo-1,2,3,4-tetrahydropyrimidine-5-carboxamide] | ≤ 0.05 | ≤ 0.05 |
| ≤ 0.05 | ≤ 0.05 | COCCOc1cc2nccc(Oc3ccc(NC(=O)c4cccn(-c5ccc(F)cc5)c4=O)cc3F)c2c2c1OCCO2 [Example 34, N-(3-fluoro-4-((5-(2-methoxyethoxy)-2,3-dihydro-[1,4]dioxino[2,3-f]quinolin-10-yl)oxy)phenyl)-1-(4-fluorophenyl)-2-oxo-1,2-dihydropyridine-3-carboxamide] | ≤ 0.05 | ≤ 0.05 |
| ≤ 0.05 | ≤ 0.05 | COc1cc2nccc(Oc3ccc(NC(=O)c4cn(CCF)c(=O)n(-c5ccc(F)cc5)c4=O)cc3F)c2c2c1OCCO2 [Example 101, N-(3-fluoro-4-((5-methoxy-2,3-dihydro-[1,4]dioxino[2,3-f]quinolin-10-yl)oxy)phenyl)-3-(4-fluorophenyl)-1-(2-fluoroethyl)-2,4-dioxo-1,2,3,4-tetrahydropyrimidine-5-carboxamide] | ≤ 0.05 | ≤ 0.05 |
| ≤ 0.05 | ≤ 0.05 | Cn1cc(C(=O)Nc2ccc(Oc3ccnc4cc(OCCCN5CCCCC5)c5c(c34)OCCO5)c(F)c2)c(=O)n(-c2ccc(F)cc2)c1=O [Example 39, N-(3-fluoro-4-((5-(3-(piperidin-1-yl)propoxy)-2,3-dihydro-[1,4]dioxino[2,3-f]quinolin-10-yl)oxy)phenyl)-3-(4-fluorophenyl)-1-methyl-2,4-dioxo-1,2,3,4-tetrahydropyrimidine-5-carboxamide] | ≤ 0.05 | 0.05 to 0.2 |
| ≤ 0.05 | ≤ 0.05 | COCCOc1cc2nccc(Oc3ccc(NC(=O)c4c(OC)ccn(-c5ccc(F)cc5)c4=O)cc3F)c2c2c1OCCO2 [Example 35, N-(3-fluoro-4-((5-(2-methoxyethoxy)-2,3-dihydro-[1,4]dioxino[2,3-f]quinolin-10-yl)oxy)phenyl)-1-(4-fluorophenyl)-4-methoxy-2-oxo-1,2-dihydropyridine-3-carboxamide] | ≤ 0.05 | ≤ 0.05 |
| ≤ 0.05 | ≤ 0.05 | CCOc1ccn(-c2ccc(C)cc2)c(=O)c1C(=O)Nc1ccc(Oc2ccnc3cc(OC)c4c(c23)OCCO4)c(F)c1 [Example 112, N-(3-fluoro-4-((5-methoxy-2,3-dihydro-[1,4]dioxino[2,3-f]quinolin-10-yl)oxy)phenyl)-2-oxo-4-ethoxy-1-(4-methylphenyl)-1,2-dihydropyridin-3-carboxamide] | 0.05 to 0.2 | 0.2 to 1 |
| ≤ 0.05 | ≤ 0.05 | CCOc1ccn(-c2ccc(Cl)cc2)c(=O)c1C(=O)Nc1ccc(Oc2ccnc3cc(OC)c4c(c23)OCCO4)c(F)c1 [Example 113, N-(3-fluoro-4-((5-methoxy-2,3-dihydro-[1,4]dioxino[2,3-f]quinolin-10-yl)oxy)phenyl)-2-oxo-4-ethoxy-1-(4-chlorophenyl)-1,2-dihydropyridin-3-carboxamide] | 0.05 to 0.2 | 0.05 to 0.2 |
| ≤ 0.05 | ≤ 0.05 | CCOc1ccn(-c2ccc(F)cc2)c(=O)c1C(=O)Nc1ccc(Oc2ccnc3cc(OCC4(N)CC4)c4c(c23)OCCO4)c(F)c1 [Example 105, N-(4-((5-((1-aminocyclopropyl)methoxy)-2,3-dihydro-[1,4]dioxino[2,3-f]quinolin-10-yl)oxy)-3-fluorophenyl)-4-ethoxy-1-(4-fluorophenyl)-2-oxo-1,2-dihydropyridine-3-carboxamide] | ≤ 0.05 | 0.05 to 0.2 |
| ≤ 0.05 | ≤ 0.05 | CCOc1ccn(-c2ccc(F)cc2)c(=O)c1C(=O)Nc1ccc(Oc2ccnc3cc(OCCOC)c4c(c23)OCCO4)c(F)c1 [Example 36, N-(3-fluoro-4-((5-(2-methoxyethoxy)-2,3-dihydro-[1,4]dioxino[2,3-f]quinolin-10-yl)oxy)phenyl)-1-(4-fluorophenyl)-4-ethoxy-2-oxo-1,2-dihydropyridine-3-carboxamide] | ≤ 0.05 | ≤ 0.05 |
| ≤ 0.05 | ≤ 0.05 | COc1cc2nccc(Oc3ccc(NC(=O)c4cn(CCCO)c(=O)n(-c5ccc(F)cc5)c4=O)cc3F)c2c2c1OCCO2 [Example 99, N-(3-fluoro-4-((5-methoxy-2,3-dihydro-[1,4]dioxino[2,3-f]quinolin-10-yl)oxy)phenyl)-3-(4-fluorophenyl)-1-(3-hydroxypropyl)-2,4-dioxo-1,2,3,4-tetrahydropyrimidine-5-carboxamide] | ≤ 0.05 | 0.05 to 0.2 |
| ≤ 0.05 | ≤ 0.05 | Cn1cc(C(=O)Nc2ccc(Oc3ccnc4cc(OCCCN5CCOCC5)c5c(c34)OCCO5)c(F)c2)c(=O)n(-c2ccc(F)cc2)c1=O [Example 15, N-(3-fluoro-4-((5-(3-morpholinopropoxy)-2,3-dihydro-[1,4]dioxino[2,3-f]quinolin-10-yl)oxy)phenyl)-3-(4-fluorophenyl)-1-methyl-2,4-dioxo-1,2,3,4-tetrahydropyrimidine-5-carboxamide] | ≤ 0.05 | ≤ 0.05 |
| ≤ 0.05 | ≤ 0.05 | O=C(Nc1ccc(Oc2ncnc3cc(OCCCN4CCOCC4)c4c(c23)OCCO4)c(F)c1)c1cccn(-c2ccc(F)cc2)c1=O [Example 4, N-(3-fluoro-4-((5-(3-morpholinopropoxy)-2,3-dihydro-[1,4]dioxino[2,3-f]quinazolin-10-yl)oxy)phenyl)-1-(4-fluorophenyl)-2-oxo-1,2-dihydropyridine-3-carboxamide] | ≤ 0.05 | ≤ 0.05 |
| ≤ 0.05 | ≤ 0.05 | COCCOc1cc2nccc(Oc3cc(C)c(NC(=O)c4cn(C)c(=O)n(-c5ccc(F)cc5)c4=O)cc3F)c2c2c1OCCO2 [Example 179, N-(5-fluoro-4-((5-(2-methoxyethoxy)-2,3-dihydro-[1,4]dioxino[2,3-f]quinolin-10-yl)oxy)-2-methylphenyl)-3-(4-fluorophenyl)-1-methyl-2,4-dioxo-1,2,3,4-tetrahydropyrimidine-5-carboxamide] |  | ≤ 0.05 |
